Data set [1] addresses T1, isolated mGluR2 TMD (SNAP-mGluR2-TMD) (Rattus norvegicus, UniProt P31421).
T1 construct: mGluR2-TMD (rat) starts at Q558; expressed in transfected cells; host or cells: HEK 293T
The data set is described as follows: GIRK activation assay, whole cell patch clamp, isolated mGluR2 TMD. The data set is classed as cell-based. As to conditions: normalized to saturating LY48. On the procedure:
Cells were cultured in DMEM with 5% FBS on poly-L-lysine-coated glass coverslips. DNA plasmids were transfected into cells using Lipofectamine 3000 (Thermo Fisher). […] For single-molecule pulldown (SiMPull) experiments, cells were transfected with 0.7 μg DNA of HA and SNAP-tagged receptor constructs, unless otherwise noted. For FRET experiments, cells were transfected with either SNAP-tagged constructs at 0.5–0.7 μg of DNA/well or SNAP and CLIP-tagged constructs at a ratio of 1:2 with 0.3 μg of SNAP DNA/well.
Whole-cell patch clamp recordings from single isolated cells were performed 24–36 hr after transfection in a high-potassium extracellular solution containing (in mM): 120 KCl, 29 NaCl, 1 MgCl2, 2 CaCl2 and 10 HEPES, pH 7.4. Cells were voltage clamped to −60 mV using an Axopatch 200B amplifier (Axon Instruments) and membrane currents were recorded. Glass pipettes of resistance between 3 and 8 MΩ were filled with intracellular solution containing (in mM): 140 KCl, 10 HEPES, 3 Na2ATP, 0.2 Na2GTP, 5 EGTA and 3 MgCl2, pH 7.4. Data were acquired with a 2 kHz acquisition rate and filtered with the amplifier 4-pole Bessel filter at 1 kHz. Drugs were prepared in extracellular solution and applied using a gravity-driven perfusion system. Data were analyzed with Clampfit (Molecular Devices) and Prism (GraphPad). Data for all conditions came from at least two separate transfections.
(In patch-clamp work, channel activity is measured electrically.)

The next data set addresses T2, SNAP-mGluR2-TMD (Rattus norvegicus, UniProt P31421).
T2 construct: mGluR2-TMD (rat) starts at Q558; expressed in transfected cells; host or cells: HEK 293T
Nature of the data set: Single-molecule pulldown (SiMPull) photobleaching step counting, SNAP-mGluR2-TMD. As to conditions: 10 µM LY48, 1 µM BINA, 10 µM Ro 64, 1 µM MNI 137. From the text: Photobleaching step analysis of individual complexes allows for precise determination of receptor stoichiometry and, unlike FRET or BRET-based methods, this assay is not sensitive to conformation or relative fluorophore orientation. […] However, this work relied on GFP-tagged receptors which leads to a lysate that contains both surface-targeted and intracellular receptors, potentially including immature or partially degraded protein that can confound analysis.
To restrict our analysis to surface-targeted receptors, we expressed N-terminally SNAP-tagged receptor variants and labeled them with membrane-impermeable fluorophores.
To test this, we incubated SNAP-mGluR2-TMD expressing cells and lysates with PAMs or NAMs during the SiMPull experiment.
Briefly, to prevent non-specific sticking of proteins, flow chambers were prepared with mPEG-passivated glass slides and coverslips doped with ~1% biotinylated mPEG, as previously described. Prior to each experiment, chambers were incubated with 0.2 mg/mL NeutrAvidin (ThermoFisher) for 2 min followed by 10 nM of a biotinylated anti-HA antibody (abcam ab26228) for 20–30 min. After each conjugation step, the chambers were washed with T50 buffer (50 mM NaCl, 10 mM Tris, pH 7.5).
After labeling, cells were dissociated from coverslips by incubating with Ca^2+-free PBS for 20 min followed by gentle pipetting. […] Following 1 hr of lysis at 4°C, cells were centrifuged at 16,000 g for 20 min before the supernatant was collected and maintained on ice. The cell lysate was diluted in a 0.1% detergent dilution buffer to obtain sparse immobilization of labeled protein on the passivated slide. After obtaining an optimal density of immobilized protein, the flow chamber was washed with dilution buffer to remove unbound protein. For SiMPull experiments with PAMs and NAMs, drugs were added to cells during the dissociation step (after dye labeling), and maintained throughout the cell lysis and entire experiment.
Single molecules were imaged with a 100x objective on an inverted microscope (Olympus IX73) in total internal reflection fluorescence (TIRF) mode. Images were taken with an scMOS camera (Hamamatsu ORCA-Flash4v3.0) at 20 Hz with 50 ms exposures. […] Multiple independent experiments were performed for each condition. […] A SNAP-tag labeling efficiency of ~80% was used to calculate the proportion of dimers and monomers. Occasional co-localization of two proteins within a diffraction limited spot along with antibody and NeutrAvidin bivalency both make a small contribution to >1 step photobleaching, leading to a background % two-step bleaching level of ~5–10%. All data were produced from at least two separate transfections/protein preparations for each condition.

Data set [2] in a line: Gramicidin-based fluorescence quench assay for changes of lipid bilayer properties (LUVs). The format is physicochemical. The settings on record: 1 to 10 µM. From the text: To further probe this, we used a fluorescence quench assay for drug-induced changes of lipid bilayer properties ([Ingólfsson and Andersen, 2010]) (Figure 6—figure supplement 3A; see Materials and methods), in which changes in gramicidin channel function is used as a reporter of membrane modification. […] The persistent BINA response is thus consistent with a model where BINA readily partitions into the plasma membrane lipid bilayer (and possibly other lipidic compartments).
The gramicidin-based fluorescence assay has been described previously ([Ingólfsson and Andersen, 2010]). In brief, large unilamellar vesicles (LUVs), loaded with intravesicular ANTS were prepared from DC22:1PC and gramicidin (weight ratio 1000:1, corresponding to a ~ 2000:1 molar ratio) using freeze-drying, extrusion and size-exclusion chromatography; the final lipid concentration was 4–5 mM; the suspension was stored in the dark at 12.5°C for a maximum of 7 days. […] Before use, the LUV-ANTS stock was diluted to 200–250 μM lipid with NaNO3 buffer (140 mM NaNO3, 10 mM HEPES, pH 7).
The NAMs and PAMs (dissolved in DMSO) or DMSO (as control) were added to a LUV-ANTS sample and equilibrated at 25°C in the dark for 10 min. before the mixture was loaded into a stopped-flow spectrofluorometer (Applied Photophysics SX.20, Leatherhead, UK) and mixed with either NaNO3 buffer or TlNO3 buffer; Tl^+ (thallous ion) is a gramicidin channel-permeant quencher of the ANTS fluorescence. Samples were excited at 352 nm and the fluorescence signal above 455 nm was recorded in the absence (four successive trials) or presence (nine successive trials) of the quencher. All the NAM and PAM derivatives fluoresce to varying degrees and addition of these drugs to LUVs in control experiments without gA or Tl^+ increased the fluorescence signal, and each signal was normalized to account for the compound's fluorescence. […] The quench rate (Rate), the rate of Tl^+ influx, was determined at 2 ms: Rate=β/τ0⋅(t/τ0)^β−1|2ms […]

Each structure is given as a SMILES string.

As a reminder, the EC50 is the concentration that produces a half-maximal response.

T2 sequence (P31421 558-872 limits assumed): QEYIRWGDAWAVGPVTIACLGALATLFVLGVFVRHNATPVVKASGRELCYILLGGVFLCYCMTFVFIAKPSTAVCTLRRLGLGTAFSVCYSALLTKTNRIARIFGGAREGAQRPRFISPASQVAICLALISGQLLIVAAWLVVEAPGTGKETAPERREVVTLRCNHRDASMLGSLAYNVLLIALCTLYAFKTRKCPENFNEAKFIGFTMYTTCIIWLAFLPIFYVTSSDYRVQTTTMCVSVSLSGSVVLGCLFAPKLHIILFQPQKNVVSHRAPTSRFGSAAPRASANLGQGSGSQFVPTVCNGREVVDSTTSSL
T1 sequence (P31421 558-872 limits assumed): as above

As for `COc1ccccc1Oc1ccc(N(Cc2cccnc2)S(=O)(=O)CC(F)(F)F)cc1` [LY48], the EC50 in data set [1] came out at 140 ± 10 nM. Further, on SNAP-mGluR2-TMD, the “higher order complexes with >3 bleaching steps in presence of drug” value is less than 10% and the “two-step photobleaching events of SNAP-mGluR2-TMD in presence of drug” value was 40–45%.
In the case of `N#Cc1cc(C2=Nc3ccc(Br)cc3NC(=O)C2)ccn1` [MNI 137], the “changes in gramicidin channel function (membrane properties)” value in data set [2] is listed as “do not alter membrane properties”. Besides, on SNAP-mGluR2-TMD, the “higher order complexes with >3 bleaching steps in presence of drug” value was less than 10% and the “two-step photobleaching events of SNAP-mGluR2-TMD in presence of drug” value is reported as 40–45%.
On the same counts, the results for `Clc1cccc(Cl)c1/C(=C/n1cncn1)OC1CCCCCC1` [Ro 64] are “do not alter membrane properties”, less than 10% and 40–45%.

These data come from article PMC6588349 (eLife, 2019).
